We go through twelve compounds from ChEMBL document CHEMBL3046188, “Prodrug-oriented molecular design of neonicotinoids: preparation of imidacloprid-related 5,5-dimethoxy-1,3-diazacyclohexane derivatives and their insecticidal activity” (2005).

What all share (type): functional
The test system of test [1] is Periplaneta americana. Nature of the test: Insecticidal activity against Periplaneta americana (American cockroach) administered through injection into abdomen co-injceted with 50 ug piperonyl butoxide and 50 ug NIA 16388 measured 24 hr post compound injection.
For test [2], the system named is Periplaneta americana. The experiment in a line: Insecticidal activity against Periplaneta americana (American cockroach) administered through injection into abdomen measured 24 hr post compound injection.
The subject of test [3] is Myzus persicae. Nature of the test: Insecticidal activity against Myzus persicae (green peach aphid) reared on compound pre-treated […] plants assessed as insect mortality rate at 4 ppm measured 7 days post compound treatment.
Test [4] concerns Myzus persicae. The experiment in a line: Insecticidal activity against Myzus persicae (green peach aphid) reared on compound pre-treated […] plants assessed as insect mortality rate at 20 ppm measured 7 days post compound treatment.
Test [5] has as its system Periplaneta americana. The experiment in a line: Neuroblocking potency in Periplaneta americana (American cockroach) abdominal fifth and sixth ganglia assessed as neuroblocking concentration.
Test [6] relates to Myzus persicae. Nature of the test: Insecticidal activity against Myzus persicae (green peach aphid) reared on compound pre-treated […] plants assessed as insect mortality rate at 0.8 ppm measured 7 days post compound treatment.
In test [7] the test system is Myzus persicae. The experiment in a line: Insecticidal activity against Myzus persicae (green peach aphid) reared on compound pre-treated […] plants assessed as insect mortality rate at 0.16 ppm measured 7 days post compound treatment.
In test [8] the test system is Myzus persicae. Nature of the test: Insecticidal activity against Myzus persicae (green peach aphid) reared on compound pre-treated […] plants assessed as insect mortality rate at 100 ppm measured 7 days post compound treatment.

For orientation: mortality means the share of the test organisms that died.

On to `C/N=C(\NCc1ccc(Cl)nc1)N[N+](=O)[O-]`, for which the MLD in the test on Periplaneta americana [1] and in the test on Periplaneta americana [2] was 0.0051 µmol each time. Moreover, in the test with Myzus persicae [3], the mortality at 4 ppm was determined as 100%. In addition, the mortality at 20 ppm with Myzus persicae [4] was 100%. The Activity in the test on Periplaneta americana [5] came to 0.0085 mM. Also, the mortality at 0.8 ppm in the test on Myzus persicae [6] worked out at 100%. For the same compound, in the test on Myzus persicae [7], the mortality at 0.16 ppm stood at 100%.
As to `O=[N+]([O-])/N=C1\NCCCN1Cc1ccc(Cl)nc1`, the MLD came to 0.015 µmol in the test on Periplaneta americana [1] and 9.6e-05 µmol in the test on Periplaneta americana [2]. For the same compound, the mortality at 4 ppm in the test with Myzus persicae [3] came to 100%. The mortality at 20 ppm in the test on Myzus persicae [4] worked out at 100%. In addition, the Activity in the test with Periplaneta americana [5] is recorded as 0.0045 mM. The mortality at 0.8 ppm in the test with Myzus persicae [6] was 100%. Further, the mortality at 0.16 ppm in the test on Myzus persicae [7] worked out at 90%.
Turning to `N/C(=N\[N+](=O)[O-])NCc1ccc(Cl)nc1`, the MLD in the test with Periplaneta americana [1] and in the test with Periplaneta americana [2] was above 0.4 µmol each time. For the same compound, the Activity in the test with Periplaneta americana [5] was above 0.65 mM. Also, the mortality at 100 ppm with Myzus persicae [8] came to 60%.
For the compound `COC1CN/C(=N\[N+](=O)[O-])N(Cc2ccc(Cl)nc2)C1` (stereo not drawn), in the test with Myzus persicae [3], the mortality at 4 ppm was 0%. Besides, in the test on Myzus persicae [4], the mortality at 20 ppm is 40%.
Take `CC1(C)CN/C(=N\[N+](=O)[O-])N(Cc2ccc(Cl)nc2)C1`: the mortality at 4 ppm in the test on Myzus persicae [3] came out at 0%. In the test on Myzus persicae [4], the mortality at 20 ppm is 60%.
On to `COC1(OC)CN/C(=C\[N+](=O)[O-])N(CC2CCOC2)C1` (stereo not drawn), for which the MLD in the test with Periplaneta americana [1] and with Periplaneta americana [2] was above 0.36 µmol throughout. Also, the mortality at 4 ppm in the test with Myzus persicae [3] amounted to 0%. In addition, the mortality at 20 ppm with Myzus persicae [4] turned out to be 60%. For the same compound, the Activity in the test with Periplaneta americana [5] is recorded as above 0.54 mM.
`COC1(OC)CN/C(=C\[N+](=O)[O-])N(Cc2ccc(Cl)nc2)C1`: the MLD in the test with Periplaneta americana [1] is above 0.44 µmol; with Periplaneta americana [2], 0.35 µmol. The mortality at 4 ppm in the test on Myzus persicae [3] was determined as 60%. For the same compound, the mortality at 20 ppm in the test with Myzus persicae [4] was determined as 90%. Also, the Activity in the test on Periplaneta americana [5] turned out to be 1 mM. For the same compound, the mortality at 0.8 ppm with Myzus persicae [6] is 0%.
In the case of `COC1(OC)CN/C(=N\C#N)N(Cc2ccc(Cl)nc2)C1`, the MLD in the test with Periplaneta americana [1] and with Periplaneta americana [2] was above 0.4 µmol in each case. The mortality at 4 ppm with Myzus persicae [3] was 60%. For the same compound, the mortality at 20 ppm in the test with Myzus persicae [4] is 100%. Moreover, in the test on Periplaneta americana [5], the Activity came to 0.62 mM. Also, in the test with Myzus persicae [6], the mortality at 0.8 ppm was 60%. Also, in the test on Myzus persicae [7], the mortality at 0.16 ppm came to 20%.
Regarding `COC1(OC)CN(C)/C(=N\[N+](=O)[O-])N(Cc2cnc(Cl)s2)C1`, the MLD with Periplaneta americana [1] was above 0.36 µmol; in the test on Periplaneta americana [2] it was 0.36 µmol. The mortality at 4 ppm in the test on Myzus persicae [3] worked out at 100%. The mortality at 20 ppm in the test on Myzus persicae [4] came out at 100%. In addition, the Activity in the test on Periplaneta americana [5] is recorded as above 0.54 mM. The mortality at 0.8 ppm with Myzus persicae [6] came out at 60%. In addition, the mortality at 0.16 ppm with Myzus persicae [7] came out at 40%.
Regarding `COC1(OC)CN(C)/C(=N\[N+](=O)[O-])N(Cc2ccc(Cl)nc2)C1`, the MLD in the test with Periplaneta americana [1] was above 0.36 µmol; in the test with Periplaneta americana [2], 0.36 µmol. The mortality at 4 ppm in the test with Myzus persicae [3] was 90%. For the same compound, in the test on Myzus persicae [4], the mortality at 20 ppm amounted to 90%. The Activity in the test with Periplaneta americana [5] is above 0.56 mM. Besides, the mortality at 0.8 ppm in the test on Myzus persicae [6] was found to be 60%. Further, the mortality at 0.16 ppm in the test on Myzus persicae [7] was 30%.
For the compound `COC1(OC)CN/C(=N\[N+](=O)[O-])N(Cc2cnc(Cl)s2)C1`, the MLD was above 0.34 µmol in the test on Periplaneta americana [1] and 0.24 µmol with Periplaneta americana [2]. Besides, the mortality at 4 ppm with Myzus persicae [3] stood at 100%. For the same compound, in the test with Myzus persicae [4], the mortality at 20 ppm was 100%. The Activity in the test with Periplaneta americana [5] is on record as above 0.56 mM. The mortality at 0.8 ppm with Myzus persicae [6] is 60%. In the test on Myzus persicae [7], the mortality at 0.16 ppm amounted to 50%.
For `COC1(OC)CN/C(=N\[N+](=O)[O-])N(Cc2ccc(Cl)nc2)C1`, the MLD in the test with Periplaneta americana [1] was above 0.38 µmol; with Periplaneta americana [2] it was 0.19 µmol. Moreover, the mortality at 4 ppm in the test with Myzus persicae [3] was 100%. The mortality at 20 ppm with Myzus persicae [4] is 100%. In the test on Periplaneta americana [5], the Activity is 0.56 mM. Moreover, the mortality at 0.8 ppm in the test on Myzus persicae [6] was determined as 90%. In the test on Myzus persicae [7], the mortality at 0.16 ppm turned out to be 60%.
